Values after ≈ are worked out from the molar mass of the structure shown.
Tested on: Staphylococcus aureus
Assay: Antimicrobial activity against Staphylococcus aureus Smith by micro broth dilution or agar based method
Format: functional
Conditions: not given

Q: `COc1ccc2ncc(C#N)c(CC(O)C34CCC(NCc5ccc6c(n5)NC(=O)CO6)(CC3)CO4)c2n1` (stereo in doubt; 88) was tested. Which MIC did it give?
A: 0.031 µg/mL (≈ 0.06 µM)

Same assay, conditions: Staphylococcus aureus, Smith; read-out: MIC

Q: `Cc1cc(S(C)(=O)=O)nc2c(CCC34CCC(NCc5ccc6c(n5)NC(=O)CO6)(CC3)CO4)ccnc12` was tested. Which MIC did it give?
A: 1 µg/mL (≈ 1.86 µM)

Q: With `COc1nc2c(CCC34CCC(NCc5ccc6c(n5)NC(=O)CO6)(CC3)CO4)c(F)cnc2cc1F` as the compound, how does the MIC read?
A: 0.031 µg/mL (≈ 0.0606 µM)

Q: `COc1nc2c(CCC34CCC(NCc5ccc6c(n5)NC(=O)CO6)(CC3)CO4)c(F)cnc2cc1C(F)(F)F` was tested. Which MIC did it give?
A: 8 µg/mL (≈ 14.2 µM)

Q: How did the MIC turn out when `COc1ccc2ncc(F)c(C[C@H](O)C34CCC(NCc5ccc6c(n5)NC(=O)CO6)(CC3)CO4)c2n1` was run?
A: 0.02 µg/mL (≈ 0.0393 µM)

Q: With `COc1cc(C)c2nccc(CCC34CCC(NCc5ccc6c(n5)NC(=O)CO6)(CC3)CO4)c2n1` as the compound, how does the MIC read?
A: 0.125 µg/mL (≈ 0.255 µM)

Q: How did the MIC turn out when `O=C1COc2ccc(CNC34CCC(CCc5c(F)cnc6cc(Cl)cnc56)(CC3)OC4)nc2N1` was run?
A: 8 µg/mL (≈ 16.1 µM)

Q: `COc1nc2c(CCC34CCC(NCc5ccc6c(n5)NC(=O)CO6)(CC3)CO4)ccnc2cc1C#N` was tested. Which MIC did it give?
A: 16 µg/mL (≈ 32 µM)

Tested on: Staphylococcus aureus
Assay: Antimicrobial activity against methicillin-resistant Staphylococcus aureus OIT971 by micro broth dilution or agar based method
Format: functional
Conditions: not given

Q: For `Cc1cc(S(C)(=O)=O)nc2c(CCC34CCC(NCc5ccc6c(n5)NC(=O)CO6)(CC3)CO4)ccnc12`, which MIC is on record?
A: 1 µg/mL (≈ 1.86 µM)

Q: How did the MIC turn out when `COc1nc2c(CCC34CCC(NCc5ccc6c(n5)NC(=O)CO6)(CC3)CO4)c(F)cnc2cc1F` was run?
A: 0.016 µg/mL (≈ 0.0313 µM)

Q: How did the MIC turn out when `COc1nc2c(CCC34CCC(NCc5ccc6c(n5)NC(=O)CO6)(CC3)CO4)c(F)cnc2cc1C(F)(F)F` was run?
A: 8 µg/mL (≈ 14.2 µM)

Q: How did the MIC turn out when `COc1ccc2ncc(F)c(C[C@H](O)C34CCC(NCc5ccc6c(n5)NC(=O)CO6)(CC3)CO4)c2n1` was run?
A: 0.06 µg/mL (≈ 0.118 µM)

Q: How did the MIC turn out when `COc1cc(C)c2nccc(CCC34CCC(NCc5ccc6c(n5)NC(=O)CO6)(CC3)CO4)c2n1` was run?
A: 0.063 µg/mL (≈ 0.129 µM)

Q: `O=C1COc2ccc(CNC34CCC(CCc5c(F)cnc6cc(Cl)cnc56)(CC3)OC4)nc2N1` was tested. Which MIC did it give?
A: 8 µg/mL (≈ 16.1 µM)

Q: For `COc1nc2c(CCC34CCC(NCc5ccc6c(n5)NC(=O)CO6)(CC3)CO4)ccnc2cc1C#N`, which MIC is on record?
A: 2 µg/mL (≈ 4 µM)

Q: How did the MIC turn out when `COc1ccc2ncc(C#N)c(CC(O)C34CCC(NCc5ccc6c(n5)NC(=O)CO6)(CC3)CO4)c2n1` (stereo in doubt; 88) was run?
A: 0.031 µg/mL (≈ 0.06 µM)

Tested on: Streptococcus pneumoniae
Assay: Antimicrobial activity against Streptococcus pneumoniae IID553 by micro broth dilution or agar based method
Format: functional
Conditions: Streptococcus pneumoniae, IID553; read-out: MIC

Q: For `Cc1cc(S(C)(=O)=O)nc2c(CCC34CCC(NCc5ccc6c(n5)NC(=O)CO6)(CC3)CO4)ccnc12`, which MIC is on record?
A: 16 µg/mL (≈ 29.8 µM)

Q: For `COc1nc2c(CCC34CCC(NCc5ccc6c(n5)NC(=O)CO6)(CC3)CO4)c(F)cnc2cc1F`, which MIC is on record?
A: 0.25 µg/mL (≈ 0.489 µM)

Q: How did the MIC turn out when `COc1nc2c(CCC34CCC(NCc5ccc6c(n5)NC(=O)CO6)(CC3)CO4)c(F)cnc2cc1C(F)(F)F` was run?
A: 8 µg/mL (≈ 14.2 µM)

Q: Which MIC does the source give for `COc1ccc2ncc(F)c(C[C@H](O)C34CCC(NCc5ccc6c(n5)NC(=O)CO6)(CC3)CO4)c2n1` here?
A: 0.05 µg/mL (≈ 0.0981 µM)

Q: `COc1cc(C)c2nccc(CCC34CCC(NCc5ccc6c(n5)NC(=O)CO6)(CC3)CO4)c2n1` was tested. Which MIC did it give?
A: 1 µg/mL (≈ 2.04 µM)

Q: How did the MIC turn out when `O=C1COc2ccc(CNC34CCC(CCc5c(F)cnc6cc(Cl)cnc56)(CC3)OC4)nc2N1` was run?
A: 32 µg/mL (≈ 64.3 µM)

Q: With `COc1nc2c(CCC34CCC(NCc5ccc6c(n5)NC(=O)CO6)(CC3)CO4)ccnc2cc1C#N` as the compound, how does the MIC read?
A: 64 µg/mL (≈ 128 µM)

Q: Which MIC does the source give for `COc1ccc2ncc(C#N)c(CC(O)C34CCC(NCc5ccc6c(n5)NC(=O)CO6)(CC3)CO4)c2n1` (stereo in doubt; 88) here?
A: 0.25 µg/mL (≈ 0.484 µM)

Tested on: Enterococcus faecium
Assay: Antimicrobial activity against VanA expressing vancomycin-resistant Enterococcus faecium by micro broth dilution or agar based method
Format: functional
Conditions: Enterococcus faecium; read-out: MIC

Q: `Cc1cc(S(C)(=O)=O)nc2c(CCC34CCC(NCc5ccc6c(n5)NC(=O)CO6)(CC3)CO4)ccnc12` was tested. Which MIC did it give?
A: 16 µg/mL (≈ 29.8 µM)

Q: Which MIC does the source give for `COc1nc2c(CCC34CCC(NCc5ccc6c(n5)NC(=O)CO6)(CC3)CO4)c(F)cnc2cc1F` here?
A: 2 µg/mL (≈ 3.91 µM)

Q: `COc1nc2c(CCC34CCC(NCc5ccc6c(n5)NC(=O)CO6)(CC3)CO4)c(F)cnc2cc1C(F)(F)F` was tested. Which MIC did it give?
A: 8 µg/mL (≈ 14.2 µM)

Q: For `COc1ccc2ncc(F)c(C[C@H](O)C34CCC(NCc5ccc6c(n5)NC(=O)CO6)(CC3)CO4)c2n1`, which MIC is on record?
A: 0.5 µg/mL (≈ 0.981 µM)

Q: For `COc1cc(C)c2nccc(CCC34CCC(NCc5ccc6c(n5)NC(=O)CO6)(CC3)CO4)c2n1`, which MIC is on record?
A: 8 µg/mL (≈ 16.3 µM)

Q: With `O=C1COc2ccc(CNC34CCC(CCc5c(F)cnc6cc(Cl)cnc56)(CC3)OC4)nc2N1` as the compound, how does the MIC read?
A: 32 µg/mL (≈ 64.3 µM)

Q: `COc1nc2c(CCC34CCC(NCc5ccc6c(n5)NC(=O)CO6)(CC3)CO4)ccnc2cc1C#N` was tested. Which MIC did it give?
A: 64 µg/mL (≈ 128 µM)

Q: How did the MIC turn out when `COc1ccc2ncc(C#N)c(CC(O)C34CCC(NCc5ccc6c(n5)NC(=O)CO6)(CC3)CO4)c2n1` (stereo in doubt; 88) was run?
A: 1 µg/mL (≈ 1.94 µM)

Tested on: Escherichia coli
Assay: Antimicrobial activity against Escherichia coli ATCC 25922 by micro broth dilution or agar based method
Format: functional
Conditions: Escherichia coli, ATCC 25922; read-out: MIC

Q: With `Cc1cc(S(C)(=O)=O)nc2c(CCC34CCC(NCc5ccc6c(n5)NC(=O)CO6)(CC3)CO4)ccnc12` as the compound, how does the MIC read?
A: 32 µg/mL (≈ 59.5 µM)

Q: With `COc1nc2c(CCC34CCC(NCc5ccc6c(n5)NC(=O)CO6)(CC3)CO4)c(F)cnc2cc1F` as the compound, how does the MIC read?
A: 4 µg/mL (≈ 7.82 µM)

Q: With `COc1nc2c(CCC34CCC(NCc5ccc6c(n5)NC(=O)CO6)(CC3)CO4)c(F)cnc2cc1C(F)(F)F` as the compound, how does the MIC read?
A: 8 µg/mL (≈ 14.2 µM)

Q: With `COc1ccc2ncc(F)c(C[C@H](O)C34CCC(NCc5ccc6c(n5)NC(=O)CO6)(CC3)CO4)c2n1` as the compound, how does the MIC read?
A: 2 µg/mL (≈ 3.93 µM)

Q: With `COc1cc(C)c2nccc(CCC34CCC(NCc5ccc6c(n5)NC(=O)CO6)(CC3)CO4)c2n1` as the compound, how does the MIC read?
A: 8 µg/mL (≈ 16.3 µM)

Q: Which MIC does the source give for `O=C1COc2ccc(CNC34CCC(CCc5c(F)cnc6cc(Cl)cnc56)(CC3)OC4)nc2N1` here?
A: 32 µg/mL (≈ 64.3 µM)

Q: `COc1nc2c(CCC34CCC(NCc5ccc6c(n5)NC(=O)CO6)(CC3)CO4)ccnc2cc1C#N` was tested. Which MIC did it give?
A: 64 µg/mL (≈ 128 µM)

Q: `COc1ccc2ncc(C#N)c(CC(O)C34CCC(NCc5ccc6c(n5)NC(=O)CO6)(CC3)CO4)c2n1` (stereo in doubt; 88) was tested. Which MIC did it give?
A: 4 µg/mL (≈ 7.74 µM)

Tested on: Acinetobacter baumannii
Assay: Antimicrobial activity against Acinetobacter baumannii IID876 by micro broth dilution or agar based method
Format: functional
Conditions: Acinetobacter baumannii, IID876; read-out: MIC

Q: With `Cc1cc(S(C)(=O)=O)nc2c(CCC34CCC(NCc5ccc6c(n5)NC(=O)CO6)(CC3)CO4)ccnc12` as the compound, how does the MIC read?
A: 16 µg/mL (≈ 29.8 µM)

Q: How did the MIC turn out when `COc1nc2c(CCC34CCC(NCc5ccc6c(n5)NC(=O)CO6)(CC3)CO4)c(F)cnc2cc1F` was run?
A: 1 µg/mL (≈ 1.95 µM)

Q: `COc1nc2c(CCC34CCC(NCc5ccc6c(n5)NC(=O)CO6)(CC3)CO4)c(F)cnc2cc1C(F)(F)F` was tested. Which MIC did it give?
A: 8 µg/mL (≈ 14.2 µM)

Q: `COc1ccc2ncc(F)c(C[C@H](O)C34CCC(NCc5ccc6c(n5)NC(=O)CO6)(CC3)CO4)c2n1` was tested. Which MIC did it give?
A: 0.5 µg/mL (≈ 0.981 µM)

Q: For `COc1cc(C)c2nccc(CCC34CCC(NCc5ccc6c(n5)NC(=O)CO6)(CC3)CO4)c2n1`, which MIC is on record?
A: 8 µg/mL (≈ 16.3 µM)

Q: `O=C1COc2ccc(CNC34CCC(CCc5c(F)cnc6cc(Cl)cnc56)(CC3)OC4)nc2N1` was tested. Which MIC did it give?
A: 32 µg/mL (≈ 64.3 µM)

Q: How did the MIC turn out when `COc1nc2c(CCC34CCC(NCc5ccc6c(n5)NC(=O)CO6)(CC3)CO4)ccnc2cc1C#N` was run?
A: 64 µg/mL (≈ 128 µM)

Q: Which MIC does the source give for `COc1ccc2ncc(C#N)c(CC(O)C34CCC(NCc5ccc6c(n5)NC(=O)CO6)(CC3)CO4)c2n1` (stereo in doubt; 88) here?
A: 0.5 µg/mL (≈ 0.968 µM)

Tested on: Pseudomonas aeruginosa
Assay: Antimicrobial activity against Pseudomonas aeruginosa PAO1 by micro broth dilution or agar based method
Format: functional
Conditions: Pseudomonas aeruginosa, PAO1; read-out: MIC

Q: How did the MIC turn out when `Cc1cc(S(C)(=O)=O)nc2c(CCC34CCC(NCc5ccc6c(n5)NC(=O)CO6)(CC3)CO4)ccnc12` was run?
A: 32 µg/mL (≈ 59.5 µM)

Q: `COc1nc2c(CCC34CCC(NCc5ccc6c(n5)NC(=O)CO6)(CC3)CO4)c(F)cnc2cc1F` was tested. Which MIC did it give?
A: 8 µg/mL (≈ 15.6 µM)

Q: How did the MIC turn out when `COc1nc2c(CCC34CCC(NCc5ccc6c(n5)NC(=O)CO6)(CC3)CO4)c(F)cnc2cc1C(F)(F)F` was run?
A: 8 µg/mL (≈ 14.2 µM)

Q: For `COc1ccc2ncc(F)c(C[C@H](O)C34CCC(NCc5ccc6c(n5)NC(=O)CO6)(CC3)CO4)c2n1`, which MIC is on record?
A: 8 µg/mL (≈ 15.7 µM)

Q: How did the MIC turn out when `COc1cc(C)c2nccc(CCC34CCC(NCc5ccc6c(n5)NC(=O)CO6)(CC3)CO4)c2n1` was run?
A: 32 µg/mL (≈ 65.4 µM)

Q: With `O=C1COc2ccc(CNC34CCC(CCc5c(F)cnc6cc(Cl)cnc56)(CC3)OC4)nc2N1` as the compound, how does the MIC read?
A: 32 µg/mL (≈ 64.3 µM)

Q: For `COc1nc2c(CCC34CCC(NCc5ccc6c(n5)NC(=O)CO6)(CC3)CO4)ccnc2cc1C#N`, which MIC is on record?
A: 64 µg/mL (≈ 128 µM)

Q: Which MIC does the source give for `COc1ccc2ncc(C#N)c(CC(O)C34CCC(NCc5ccc6c(n5)NC(=O)CO6)(CC3)CO4)c2n1` (stereo in doubt; 88) here?
A: 8 µg/mL (≈ 15.5 µM)

Biological target: Voltage-gated inwardly rectifying potassium channel KCNH2 (Homo sapiens, UniProt Q12809)
Assay: Inhibition of MK499 binding to human ERG
Conditions: not given

Chain of Voltage-gated inwardly rectifying potassium channel KCNH2 (Q12809 whole entry): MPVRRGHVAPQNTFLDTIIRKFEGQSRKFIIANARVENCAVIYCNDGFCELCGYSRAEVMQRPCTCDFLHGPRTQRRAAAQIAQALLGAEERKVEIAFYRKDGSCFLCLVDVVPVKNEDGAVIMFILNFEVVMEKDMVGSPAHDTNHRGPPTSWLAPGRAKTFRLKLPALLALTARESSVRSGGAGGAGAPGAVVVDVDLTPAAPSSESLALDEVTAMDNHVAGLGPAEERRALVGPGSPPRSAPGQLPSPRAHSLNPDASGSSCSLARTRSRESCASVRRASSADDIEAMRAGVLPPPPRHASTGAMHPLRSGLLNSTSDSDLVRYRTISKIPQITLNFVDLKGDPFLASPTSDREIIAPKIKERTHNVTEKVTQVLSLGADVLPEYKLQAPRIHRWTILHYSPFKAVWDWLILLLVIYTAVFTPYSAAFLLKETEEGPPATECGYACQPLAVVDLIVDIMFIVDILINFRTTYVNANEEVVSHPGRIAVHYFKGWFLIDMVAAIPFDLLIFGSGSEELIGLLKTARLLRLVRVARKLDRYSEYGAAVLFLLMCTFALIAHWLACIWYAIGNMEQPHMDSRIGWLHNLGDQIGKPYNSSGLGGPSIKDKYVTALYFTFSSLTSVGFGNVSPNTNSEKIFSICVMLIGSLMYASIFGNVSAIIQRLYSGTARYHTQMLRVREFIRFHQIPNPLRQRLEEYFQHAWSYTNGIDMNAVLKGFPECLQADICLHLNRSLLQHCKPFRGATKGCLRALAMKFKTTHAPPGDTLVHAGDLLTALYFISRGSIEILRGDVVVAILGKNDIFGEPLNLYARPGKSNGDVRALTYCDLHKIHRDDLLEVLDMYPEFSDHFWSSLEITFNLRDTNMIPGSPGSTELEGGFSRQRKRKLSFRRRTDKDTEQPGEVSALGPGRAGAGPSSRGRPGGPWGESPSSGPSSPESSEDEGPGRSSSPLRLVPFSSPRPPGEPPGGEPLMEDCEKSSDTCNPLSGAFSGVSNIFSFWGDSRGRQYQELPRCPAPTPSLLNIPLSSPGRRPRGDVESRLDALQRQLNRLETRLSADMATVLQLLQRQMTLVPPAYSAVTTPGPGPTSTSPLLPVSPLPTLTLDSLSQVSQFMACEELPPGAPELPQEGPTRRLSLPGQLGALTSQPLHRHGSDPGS

Q: `Cc1cc(S(C)(=O)=O)nc2c(CCC34CCC(NCc5ccc6c(n5)NC(=O)CO6)(CC3)CO4)ccnc12` was tested. Which IC50 did it give?
A: 6.71 µM

Tested on: Staphylococcus aureus
Assay: Potency index, ratio of MIC for quinolone-resistant Staphylococcus aureus MS5935 to MIC for quinolone-[…]
Format: functional
Conditions: not given

Q: With `Cc1cc(S(C)(=O)=O)nc2c(CCC34CCC(NCc5ccc6c(n5)NC(=O)CO6)(CC3)CO4)ccnc12` as the compound, how does the Ratio read?
A: <4

From ChEMBL document CHEMBL3421558, “Structure activity relationship of substituted 1,5-naphthyridine analogs of oxabicyclooctane-linked novel bacterial topoisomerase inhibitors as broad-spectrum antibacterial agents (Part-4)” (Bioorg Med Chem Lett, 2015)
